Legend:
E. coli = assay: Intraruminal sodium chlorate in cattle: ruminal and fecal E. coli viable cell counts on MacConkey agar; format: in vivo; details: for Mean ± SD (n = 2) fecal EC concentration / Mean ± SD (n = 2) ruminal EC concentration: treated (30 mM sodium chlorate intraruminally)
Protocol: Concentrations of E. coli in the ruminal contents and in feces collected from the test animals were determined by viable cell counts on MacConkey agar plates.

culturable anaerobes = assay: Most probable number of culturable anaerobes in ruminal fluid incubated with chlorate; format: cell-based; details: 5 mM sodium chlorate, anaerobic, 39° C.

[O-][Cl+2]([O-])O [chlorate, sodium chlorate]
decrease in ruminal E. coli concentration (E. coli; fasted and non-fasted, 30 mM sodium chlorate, after 24 hours (compared with 10 hours)): significantly greater
change of ruminal E. coli concentrations from prechlorate levels (E. coli; fasted and non-fasted, 30 mM sodium chlorate, by 10 hours after chlorate administration): decreased only slightly
Mean ± SD (n = 2) fecal EC concentration (E. coli; fasted, 0 h post treatment): 5.29 ± 0.24 log base 10 CFU/g
Mean ± SD (n = 2) ruminal EC concentration (E. coli; fasted, 0 h post treatment): 3.62 ± 2.29 log base 10 CFU/g
Mean ± SD (n = 2) ruminal EC concentration (E. coli; fasted, 10 h post treatment): 3.27 ± 3.21 log base 10 CFU/g
Mean ± SD (n = 2) fecal EC concentration (E. coli; fasted, 24 h post treatment): 2.33 ± 1.24 log base 10 CFU/g
Mean ± SD (n = 2) ruminal EC concentration (E. coli; fasted, 24 h post treatment): 2.40 ± 0.20 log base 10 CFU/g
Mean ± SD (n = 2) fecal EC concentration (E. coli; nonfasted, 0 h post treatment): 5.19 ± 1.68 log base 10 CFU/g
Mean ± SD (n = 2) ruminal EC concentration (E. coli; nonfasted, 0 h post treatment): 3.66 ± 1.76 log base 10 CFU/g
Mean ± SD (n = 2) ruminal EC concentration (E. coli; nonfasted, 10 h post treatment): 2.22 ± 3.14 log base 10 CFU/g
Mean ± SD (n = 2) fecal EC concentration (E. coli; nonfasted, 24 h post treatment): 2.65 ± 1.91 log base 10 CFU/g
Mean ± SD (n = 2) ruminal EC concentration (E. coli; nonfasted, 24 h post treatment): 2.28 ± 1.38 log base 10 CFU/g
effect on the most probable number of culturable anaerobes (culturable anaerobes): little effect

From patent US6761911B2 (The United States of America as represented by the …, priority 1999, dated 2004)
